Results published in patent US11040027B2, “Protein kinase inhibitors for promoting liver regeneration or reducing or preventing hepatocyte death” (HEPAREGENIX GMBH, priority 2017, dated 2021).
pIC50: −log10 of the molar value.

Assays:
C57BL/6N female mice = assay: In vivo survival study after Jo2 antibody injection; conditions: 30 mg/kg oral gavage 1 h before i.p. 0.8 μg/g Jo2 antibody; versus vehicle only; 24 h; FIG. 1
Description: C57BL/6N female mice, age 6-9 weeks, purchased from Charles River Laboratories, Research Models and Services, Germany GmbH (Sulzfeld), were housed in accordance with the institutional guidelines of the University of TObingen, Germany. All animal experiments were approved by the German legal authorities.
Three experiments with n=3, n=4 and n=6 animals per group were performed. At time point t=−1 h), mice were dosed by oral gavage with either 30 mg/kg of compound, mixed in 2% hydroxymethylcellulose, pH 4.0) or vehicle only. One hour later (t=0 h), all animals were intraperitoneally (i.p.) injected with 0.8 μg/g mouse weight of Jo2 antibody (BD Pharmingen, San Diego, Calif.) diluted in 0.9% NaCl.
Mice were continuously monitored and survival was monitored all 15 min. After 24 h, all surviving animals were sacrificed.

BRaf = BRaf (Homo sapiens, UniProt P15056); assay: KINOMEscan competition binding assay, selectivity BRaf versus MKK4; conditions: Test conc. 0.1 μM; ratio of percent of control; N/E* per footnote
MKK4 active = biological target: T1, MKK4 active (Homo sapiens, UniProt P45985); assay: Radiometric protein kinase assay, MKK4 active; format: biochemical; conditions: substrate JNK1 KRKR, ATP 0.2 μM, read-out: MKK4 (potency derived from IC50-values)
T1 construct: purchased ProQinase 0948-0000-1
T1 sequence (P45985 1-399): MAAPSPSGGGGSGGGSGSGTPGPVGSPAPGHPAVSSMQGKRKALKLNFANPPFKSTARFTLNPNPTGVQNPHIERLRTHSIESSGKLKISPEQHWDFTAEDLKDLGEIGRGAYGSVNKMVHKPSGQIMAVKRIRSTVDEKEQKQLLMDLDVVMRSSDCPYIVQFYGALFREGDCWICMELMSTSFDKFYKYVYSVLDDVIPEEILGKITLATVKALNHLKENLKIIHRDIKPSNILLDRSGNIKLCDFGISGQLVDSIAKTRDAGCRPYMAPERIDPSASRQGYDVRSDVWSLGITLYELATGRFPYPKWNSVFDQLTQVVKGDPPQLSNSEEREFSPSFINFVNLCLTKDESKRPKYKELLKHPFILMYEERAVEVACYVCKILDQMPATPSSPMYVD
Description: (§1) A radiometric protein kinase assay was used for measuring the kinase activity of the respective protein kinases. All kinase assays were performed in 96-well polypropylene plates. After the reactions were stopped, the assay mixtures were transferred to 96-well MSFC filter-plates (Millipore). The reaction mix was passed through the filter membrane by aspiration, the membrane was washed 3 times with 150 mM H3PO4, once with ethanol, dried and liquid scintillation cocktail was added. Radioactivity was determined by counting of the samples in a Microbeta multiwell scintillation counter (Wallac).
(§2) b) Single Kinases • 20 μl standard assay buffer • 5 μl compound in 10% DMSO • 20 μl enzyme-substrate mix • 10 μl of substrate solution
(§3) The reaction cocktails were incubated at 30° C. for 30 minutes.

JNK1 = JNK1 (Homo sapiens, UniProt P45983); assay: KINOMEscan competition binding assay, selectivity JNK1 versus MKK4; conditions: Test conc 0.1 μM; ratio of percent of control; N/E* = PoC for JNK1 = 100
MKK4 = biological target: T2, MKK4 (Homo sapiens, UniProt P45985); assay: KINOMEscan competition binding assay, MKK4; conditions: read-out: Potency MKK4 (derived from % of control values, PoC)
T2 sequence (P45985 84-399): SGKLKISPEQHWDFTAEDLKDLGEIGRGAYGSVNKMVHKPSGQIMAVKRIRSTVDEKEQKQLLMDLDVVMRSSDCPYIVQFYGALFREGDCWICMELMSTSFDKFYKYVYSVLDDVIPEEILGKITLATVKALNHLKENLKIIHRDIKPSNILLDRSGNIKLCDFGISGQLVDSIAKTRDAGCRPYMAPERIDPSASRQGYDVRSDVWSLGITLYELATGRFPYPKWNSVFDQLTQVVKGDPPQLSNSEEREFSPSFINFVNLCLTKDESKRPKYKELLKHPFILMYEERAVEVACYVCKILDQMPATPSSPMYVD
Description: The assay was performed by combining three components: DNA-tagged kinase; immobilized ligand; and a test compound. The ability of the test compound to compete with the immobilized ligand was measured via quantitative PCR of the DNA tag.
For investigation of the affinity to MKK4, MKK7 and JNK1, the kinases were produced in HEK-293 cells and subsequently tagged with DNA for qPCR detection. […] The liganded beads were blocked with excess biotin and washed with blocking buffer (SEABLOCK™ (Pierce), 1% BSA, 0.05% TWEEN®20, 1 mM DTT) to remove unbound ligand and to reduce nonspecific binding. […] All reactions were performed in polystyrene 96-well plates in a final volume of 0.135 mL. […] The kinase concentration in the eluates was measured by qPCR.
The test compounds were provided as 10 mM stock solutions. The test solutions at indicated final concentrations were prepared at DiscoverX.

MKK7 = biological target: T3, MKK7 (Homo sapiens, UniProt O14733); assay: KINOMEscan competition binding assay, selectivity MKK7 versus MKK4; conditions: Test conc. 0.1 μM; ratio of percent of control; N/E* per footnote
T3 sequence (O14733 1-419): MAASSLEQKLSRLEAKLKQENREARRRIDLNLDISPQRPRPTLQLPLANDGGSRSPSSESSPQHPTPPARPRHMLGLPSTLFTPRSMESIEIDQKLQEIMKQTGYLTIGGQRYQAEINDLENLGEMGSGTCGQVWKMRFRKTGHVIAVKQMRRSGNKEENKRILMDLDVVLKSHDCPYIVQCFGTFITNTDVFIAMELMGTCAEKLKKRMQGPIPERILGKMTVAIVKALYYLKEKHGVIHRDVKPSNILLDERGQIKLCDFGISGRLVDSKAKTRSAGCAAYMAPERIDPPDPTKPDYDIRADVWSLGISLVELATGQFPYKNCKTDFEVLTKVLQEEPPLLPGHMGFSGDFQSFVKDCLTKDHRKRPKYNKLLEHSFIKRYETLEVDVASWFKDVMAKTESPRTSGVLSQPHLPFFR

MEKK2 = biological target: T4, MEKK2 (Homo sapiens, UniProt Q9Y2U5); assay: Radiometric protein kinase assay, MEKK2; format: biochemical; conditions: substrate Casein, ATP 0.2 μM; read-out: MEKK2 (potency derived from IC50-values)
T4 construct: purchased ProQinase 0583-0000-1
T4 sequence (Q9Y2U5 1-619): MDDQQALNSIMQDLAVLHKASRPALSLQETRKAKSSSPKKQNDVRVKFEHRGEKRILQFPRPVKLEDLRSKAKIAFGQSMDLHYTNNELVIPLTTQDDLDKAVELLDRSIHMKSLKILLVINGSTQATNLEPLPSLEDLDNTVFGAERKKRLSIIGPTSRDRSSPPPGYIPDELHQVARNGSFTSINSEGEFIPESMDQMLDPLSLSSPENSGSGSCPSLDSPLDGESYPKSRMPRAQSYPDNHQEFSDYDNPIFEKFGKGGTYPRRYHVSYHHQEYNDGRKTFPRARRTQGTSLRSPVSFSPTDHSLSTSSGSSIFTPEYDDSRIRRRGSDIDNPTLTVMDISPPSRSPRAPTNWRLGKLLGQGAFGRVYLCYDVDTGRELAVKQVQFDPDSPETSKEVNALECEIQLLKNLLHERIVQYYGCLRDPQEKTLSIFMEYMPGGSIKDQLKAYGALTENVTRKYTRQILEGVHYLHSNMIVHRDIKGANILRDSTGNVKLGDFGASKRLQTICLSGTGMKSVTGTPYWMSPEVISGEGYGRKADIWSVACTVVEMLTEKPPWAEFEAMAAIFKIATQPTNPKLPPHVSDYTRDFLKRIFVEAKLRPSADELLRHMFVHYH
Description: as §1, §2, §3

Sequence of JNK1 (P45983 1-384 isoform P45983-2): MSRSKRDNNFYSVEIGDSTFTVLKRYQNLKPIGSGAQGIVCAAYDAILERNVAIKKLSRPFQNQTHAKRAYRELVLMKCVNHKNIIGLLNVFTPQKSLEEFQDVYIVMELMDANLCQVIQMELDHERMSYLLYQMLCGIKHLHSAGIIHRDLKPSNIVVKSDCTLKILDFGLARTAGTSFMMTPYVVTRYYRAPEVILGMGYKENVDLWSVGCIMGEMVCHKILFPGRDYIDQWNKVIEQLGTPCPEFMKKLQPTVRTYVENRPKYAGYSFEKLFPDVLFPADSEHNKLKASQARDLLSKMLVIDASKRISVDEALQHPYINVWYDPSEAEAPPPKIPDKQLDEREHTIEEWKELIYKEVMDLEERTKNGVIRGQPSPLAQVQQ
Sequence of BRaf (P15056 whole entry): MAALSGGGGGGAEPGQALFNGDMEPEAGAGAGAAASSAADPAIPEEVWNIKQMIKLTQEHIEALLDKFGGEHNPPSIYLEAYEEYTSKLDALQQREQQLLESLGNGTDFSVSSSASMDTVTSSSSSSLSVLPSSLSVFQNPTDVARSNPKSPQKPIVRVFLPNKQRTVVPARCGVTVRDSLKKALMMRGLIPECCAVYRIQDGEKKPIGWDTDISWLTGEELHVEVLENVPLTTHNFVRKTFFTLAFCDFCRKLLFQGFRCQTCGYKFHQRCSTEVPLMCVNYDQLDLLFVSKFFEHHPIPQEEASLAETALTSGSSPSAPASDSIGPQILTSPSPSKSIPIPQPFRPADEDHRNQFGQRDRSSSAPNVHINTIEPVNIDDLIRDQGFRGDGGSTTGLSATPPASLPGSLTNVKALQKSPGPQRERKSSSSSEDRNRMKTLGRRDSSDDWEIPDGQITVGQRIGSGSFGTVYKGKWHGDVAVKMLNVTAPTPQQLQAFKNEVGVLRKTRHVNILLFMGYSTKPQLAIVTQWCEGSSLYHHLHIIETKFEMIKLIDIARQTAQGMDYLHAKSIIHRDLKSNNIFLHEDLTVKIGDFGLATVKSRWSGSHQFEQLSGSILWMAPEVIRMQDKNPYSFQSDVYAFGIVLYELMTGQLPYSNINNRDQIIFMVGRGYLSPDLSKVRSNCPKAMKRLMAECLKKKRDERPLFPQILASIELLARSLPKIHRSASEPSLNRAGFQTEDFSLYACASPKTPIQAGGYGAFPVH

SMILES	Selectivity BRaf/MKK4 (BRaf)	pIC50 (MKK4 active)	Selectivity JNK1/MKK4 (JNK1)	remaining binding at 0.1 µM (MKK4) [%]	Selectivity MKK7/MKK4 (MKK7)	pIC50 (MEKK2)	survival rate (C57BL/6N female mice)
CCCS(=O)(=O)Nc1ccc(F)c(C(=O)c2c[nH]c3ncc(-c4ccc(Cl)cc4)cc23)c1F [Example 2, Propane-1-sulfonic acid {3-[5-(4-chloro-phenyl)-1H-pyrrolo[2,3-b]pyridine-3-carbonyl]-2,4-difluoro-phenyl}-amide]	–	–	–	–	–	–	significantly higher
CC(C)c1ccc(-c2cnc3[nH]cc(C(=O)c4cccc(NS(C)(=O)=O)c4F)c3c2)cc1 [Example 45]	N/E* (PoC for JNK1 = 100)	5.00 to 6.00	N/E* (PoC for JNK1 = 100)	> 30	N/E* (PoC for JNK1 = 100)	< 5.00	–
CS(=O)(=O)Nc1cccc(C(=O)c2c[nH]c3ncc(-c4cc5c(cc4Cl)OCCO5)cc23)c1F [Example 48]	N/E* (PoC for JNK1 = 100)	5.00 to 6.00	8.4	10 to 30	8.7	< 5.00	–
CCCCS(=O)(=O)Nc1cccc(C(=O)c2c[nH]c3ncc(-c4ccc5c(c4)OCO5)cc23)c1F [Example 53]	56	> 6.30	N/E* (PoC for JNK1 = 100)	< 10	N/E* (PoC for JNK1 = 100)	5.00 to 6.00	–
CCCCS(=O)(=O)Nc1cccc(C(=O)c2c[nH]c3ncc(-c4ccc5c(c4)OCCO5)cc23)c1F [Example 54]	36	> 6.30	55	< 10	61	5.00 to 6.00	–
CCCCS(=O)(=O)Nc1cccc(C(=O)c2c[nH]c3ncc(-c4cc5c(cc4Cl)OCO5)cc23)c1F [Example 55]	N/E* (PoC for JNK1 = 100)	> 6.30	14	< 10	N/E* (PoC for JNK1 = 100)	< 5.00	–
CCCCS(=O)(=O)Nc1cccc(C(=O)c2c[nH]c3ncc(-c4cc5c(cc4Cl)OCCO5)cc23)c1F [Example 56]	N/E* (PoC for JNK1 = 100)	> 6.30	24	< 10	N/E* (PoC for JNK1 = 100)	< 5.00	–

The next lines start with results.

Selectivity BRaf/MKK4 (BRaf)	pIC50 (MKK4 active)	Selectivity JNK1/MKK4 (JNK1)	remaining binding at 0.1 µM (MKK4) [%]	Selectivity MKK7/MKK4 (MKK7)	pIC50 (MEKK2)	SMILES	survival rate (C57BL/6N female mice)
5.3	> 6.30	N/E* (PoC for JNK1 = 100)	10 to 30	5.3	5.00 to 6.00	CS(=O)(=O)Nc1cccc(C(=O)c2c[nH]c3ncc(-c4ccccc4Cl)cc23)c1F [Example 38, N-(3-(5-(2-Chlorophenyl)-1H-pyrrolo[2,3-b]pyridine-3-carbonyl)-2-fluorophenyl) methanesulfonamide]	–
4.7	> 6.30	N/E* (PoC for JNK1 = 100)	10 to 30	5.6	5.00 to 6.00	CCCS(=O)(=O)Nc1ccc(F)c(C(=O)c2c[nH]c3ncc(-c4ccc(F)cc4Cl)cc23)c1F [Example 40, N-(3-(5-(2-Chloro-4-fluorophenyl)-1H-pyrrolo[2,3-b]pyridine-3-carbonyl)-2,4-difluorophenyl)propane-1-sulfonamide]	–
14	> 6.30	N/E* (PoC for JNK1 = 100)	< 10	18	5.00 to 6.00	CCCS(=O)(=O)Nc1ccc(F)c(C(=O)c2c[nH]c3ncc(-c4cc5c(cc4Cl)OCCO5)cc23)c1F [Example 44, N-(3-(5-(7-Chloro-2,3-dihydrobenzo[b][1,4]dioxin-6-yl)-1H-pyrrolo[2,3-b]pyridine-3-carbonyl)-2,4-difluorophenyl)propane-1-sulfonamide]	–
N/E* (PoC for JNK1 = 100)	> 6.30	N/E* (PoC for JNK1 = 100)	< 10	10	5.00 to 6.00	COc1ccc(-c2cnc3[nH]cc(C(=O)c4cccc(NS(C)(=O)=O)c4F)c3c2)c(Cl)c1 [Example 46]	–
N/E* (PoC for JNK1 = 100)	> 6.30	10	< 10	9.7	5.00 to 6.00	CS(=O)(=O)Nc1cccc(C(=O)c2c[nH]c3ncc(-c4cc5c(cc4Cl)OCO5)cc23)c1F [Example 47]	–
7.0	> 6.30	N/E* (PoC for JNK1 = 100)	10 to 30	N/E* (PoC for JNK1 = 100)	< 5.00	CCCCS(=O)(=O)Nc1cccc(C(=O)c2c[nH]c3ncc(-c4ccc(Cl)cc4)cc23)c1F [Example 50]	–
N/E* (PoC for JNK1 = 100)	> 6.30	17	< 10	N/E* (PoC for JNK1 = 100)	< 5.00	CCCCS(=O)(=O)Nc1cccc(C(=O)c2c[nH]c3ncc(-c4ccc(OC)cc4Cl)cc23)c1F [Example 52]	–
